Entries after “also recorded” stand apart in the source; their conditions may differ.
Key:
[1] = test system: mouse model of adaptation following extensive ileocecal resection (ICR); experiment: Weight change after ileocecal resection (ICR) in mice; format: in vivo; conditions: for weight / weight gain compared to control after ICR: 56 day experiment, on and beyond postoperative day 21
Excerpt: A mouse model of adaptation following intestinal resection was previously reported. Under the aid of an operating microscope and utilizing sedation with 2% isoflurane, a midline incision was made […] and the bowel was eviscerated (FIG. 7). […] Intestinal continuity was restored by end-to-end anastomosis and the abdomen of mice was closed (FIG. 9). The mice received one dose of intraperitoneal broad-spectrum antibiotics. In particular, C57 Black 6 mice of 8 to 10 weeks in age were subjected to ileocecal resection (FIG. 11). 5 animals were carried to post-operative day 56 in the usual fashion. Seven animals were carried to the same time point but supplemented with 2'Fucosyllactose. 2'FL was added to both liquid diet (LD) and standard diet (SD) with water to achieve a final concentration of 21⁄2 grams per liter. All animals were weighed once daily during the first week then once every other day thereafter. Male C57BL/6 mice (Jackson Labs, Me.) of 8 to 10 weeks of age were weighed and started on an exclusive polymeric formula diet one day prior to experiment start (Jevity 1 Cal, Abbott Nutrition, Columbus, Ohio). All mice were administered one dose of intraperitoneal Zosyn (at approximately 100 mg/kg) on experiment day 0. All animals were grouped by operation status and subgrouped into treatment and control arms (Table 4). Liquid diet was refreshed and weights obtained daily for 7 days then all mice were transitioned to a standard chow diet with access to water. Animals in both groups were weighed every other day and taken to 21 or 56 days for experiment completion. All animal studies were approved by the Cincinnati Children's Hospital Medical Center Institutional Animal Care and Use Committee. Non-operated animals were maintained as described above. Operated animals were taken to the operating room on experimental day 0 and underwent ileocecal resection (ICR) as previously described in […] et al. (2007) American journal of physiology Gastrointestinal and liver physiology 293: G1013-1022. Under the aid of an operating microscope and utilizing sedation with 2% isoflurane, a midline incision was made and the bowel eviscerated. The ileocecal junction was identified and approximately 12 cm of ileum and cecum were resected. Resected small bowel tissue and luminal contents were collected as described below. Intestinal continuity was restored by end-to-end anastomosis and the abdomen was closed (FIG. 28). ICR mice were then assigned to control or treatment subgroups, were administered analgesia with subcutaneous buprenorphine (0.05-0.1 mg/kg) and recovered overnight in a standard neonatal incubator warmed to approximately 38 degrees Celsius. Control (non-operated) animals were maintained as described above. Beginning on experiment day 0, treatment animals were supplemented with 2'-Fucosyllactose. 2'-FL was added to formula then water to a final concentration of 2.5 grams per liter. Formula was refreshed daily and water refreshed every other day. […] Intestinal length was compared across groups using the Wilcoxon rank-sum test as values were not normally distributed. Histologic count data was averaged per mouse across two samples and compared by the Wilcoxon rank-sum test. Weight data was analyzed using Stata version 13.0 (StataCorp LP, TX). Remaining morphometric and histologic data were analyzed using GraphPad Prism version 5 (GraphPad Software Inc, CA).

[2] = test system: environmental enteropathy growth model; experiment: Environmental enteropathy growth model (control diet or regional-based diet); format: in vivo, mouse; conditions: 2.5 g/L in drinking water from 4 weeks of age
Excerpt: FIG. 41 is a scheme showing a 2′-FL experiment: Environmental Enteropathy. All dams were placed on Regional-based Diet when their pups were 10 days old. At weaning (3 weeks of age), pups were placed on either control diet (CD) or continued on regional-based diet (RBD), which is a malnutrition diet lacking nutrients. At 4 weeks of age, the pups were given either plain drinking water or 2-FL (2.5 g/L) in sipper sacs. Sipper sacs were changed and weighed every other day. Mice and food were weighed twice a week. Stool was collected at weaning, 6 weeks of age, and 8 weeks of age. Mice were sacrificed at 8 weeks of age. To further support the findings of the beneficial effect of 2′ FL supplementation on infant growth, another experiment as outlined in FIG. 41 was performed. All dams were placed on Regional-based Diet when their pups were 10 days old. At weaning (3 wks of age), pups were placed on either control diet (CD) or continued on regional-based diet (RBD), which is a malnutrition diet lacking nutrients. At 4 wks of age, the pups were given either plain drinking water or 2-FL (2.5 g/L) in sipper sacs. Sipper sacs were changed and weighed every other day. Mice and food were weighed twice a week. Stool was collected at weaning, 6 weeks of age, and 8 weeks of age. Mice were sacrificed at 8 weeks of age.

C[C@@H]1O[C@@H](O[C@H]2[C@H](O[C@H]3[C@H](O)[C@@H](O)C(O)O[C@@H]3CO)O[C@H](CO)[C@H](O)[C@@H]2O)[C@@H](O)[C@H](O)[C@@H]1O (some centres unmarked) [2′-FL, 2′-fucosyllactose]
time to return to preoperative weight after ICR ([1]; 2′-FL supplemented ICR subgroup): 3 to 4 weeks
body weight lost during the first postoperative week ([1]; 2′-FL supplemented ICR subgroup, 2.5 grams per liter in formula then water): approximately 10%
weight / weight gain compared to control after ICR [1]: improved growth; also recorded: increased weight gain; also recorded: gained more weight
weight / weight gain compared to control after ICR ([1]; listed as 2′FL): improved late-term weight-gain profile
weight difference between control and 2′-FL supplemented subgroups ([1]; animals taken to harvest at postoperative day 21): no significant weight difference
percent of preoperative body weight achieved ([1]; at 56 days after ICR, 2′-FL supplemented ICR subgroup): 110%
growth (weight change over time) ([2]; control diet): increased growth
growth (weight change over time) ([2]; regional based diet (malnutrition diet)): did not increase growth
